The text below walks through data of PubChem BioAssay (NCI).

Among the test systems are A498 renal; BT-549 breast; HCT-116 colon; HCT-15 colon; HL-60(TB) leukemia; M14 melanoma; SK-MEL-28 melanoma; SK-OV-3 ovarian; UACC-257 melanoma; SF-295 CNS.
Assay in all cases: growth of human tumour cells (NCI), 48 h

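Method: 48-hour compound exposure of cells in 96-well plates, five concentrations, linear interpolation of endpoints. Here, GI50 denotes the concentration required for 50% inhibition of growth. TGI: total growth inhibition.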

For the compound `N#Cc1ncc(/N=C/c2ccc(N(CCCl)CCCl)cc2)s1`, the GI50 was 1.63 µM with A498 renal; 29.6 µM in the assay with BT-549 breast; 30.2 µM in the assay on HCT-116 colon; 21.8 µM with HCT-15 colon; 7.44 µM in the assay with HL-60(TB) leukemia; 35.2 µM with M14 melanoma. Further, the figures for the GI50 with SK-MEL-28 melanoma, with SK-OV-3 ovarian and with UACC-257 melanoma were 79.7 µM, 27.7 µM and 13.3 µM, respectively. Moreover, the TGI with A498 renal was 4.4 µM; in the assay on BT-549 breast it was more than 100 µM; in the assay on HCT-116 colon, more than 100 µM; in the assay on HCT-15 colon it was more than 100 µM; in the assay with HL-60(TB) leukemia, more than 100 µM; in the assay with M14 melanoma, more than 100 µM. Also, the TGI is more than 100 µM with SK-MEL-28 melanoma, more than 100 µM in the assay with SK-OV-3 ovarian and 63 µM in the assay with UACC-257 melanoma.
Consider `Cc1ccc2[nH]c(C(=O)NN3C(=O)CSC34CCCCC4C)c(-c3ccccc3)c2c1` (stereo unspecified), for which the GI50 in the assay with A498 renal is 17.6 µM; in the assay with BT-549 breast, 20 µM; with HCT-116 colon, 14.5 µM; in the assay on HCT-15 colon, 18 µM; with M14 melanoma, 19.5 µM; with SF-295 CNS it was 16 µM. Besides, the GI50 in the assay on SK-MEL-28 melanoma was 19.9 µM; with SK-OV-3 ovarian it was 21.4 µM; in the assay with UACC-257 melanoma it was 16.8 µM. The TGI in the assay on A498 renal came out at 34.5 µM; in the assay on BT-549 breast, 36.7 µM; in the assay on HCT-116 colon, 34.2 µM; in the assay with HCT-15 colon it was 39.1 µM; with M14 melanoma, 37.7 µM; with SF-295 CNS it was 31.9 µM. Moreover, the TGI was determined as 38.3 µM with SK-MEL-28 melanoma, 47.1 µM with SK-OV-3 ovarian and 31.8 µM in the assay on UACC-257 melanoma.
On to `O=S(=O)(c1ccc(NC(=S)NCc2cccnc2)cc1)N1CCCCC1`, for which the GI50 in the assay with A498 renal is 15 µM; in the assay on BT-549 breast, more than 100 µM; in the assay with HCT-116 colon it was 0.47 µM; with HCT-15 colon it was 13.6 µM; with M14 melanoma, 3.9 µM; with SF-295 CNS, 13 µM. Further, the figures for the GI50 in the assay with SK-MEL-28 melanoma, in the assay on SK-OV-3 ovarian and in the assay with UACC-257 melanoma were 50.4 µM, more than 100 µM and 42.6 µM, respectively. Further, the TGI with A498 renal, in the assay on BT-549 breast, with HCT-116 colon, in the assay with HCT-15 colon, in the assay on M14 melanoma and with SF-295 CNS was more than 100 µM throughout. In addition, the TGI with SK-MEL-28 melanoma, with SK-OV-3 ovarian and in the assay with UACC-257 melanoma was more than 100 µM in each case.
Take `CC1=CC(=O)c2c(O)cccc2C1=O`: the TGI came to 13.2 µM with A498 renal; 3.15 µM in the assay with BT-549 breast; 3.11 µM in the assay on HCT-116 colon; 0.398 µM in the assay with HL-60(TB) leukemia; 3.3 µM with M14 melanoma; 23.9 µM in the assay on SF-295 CNS. The values for the TGI in the assay with SK-MEL-28 melanoma, with SK-OV-3 ovarian and with UACC-257 melanoma were 3.28 µM, 27.2 µM and 3.27 µM, respectively.
`c1ccc2[nH]c(-c3ccc(N4CCN(c5ccc(-c6nc7ccccc7[nH]6)cc5)CC4)cc3)nc2c1`: the GI50 is 54.8 µM in the assay with A498 renal; more than 100 µM with BT-549 breast; 5.11 µM in the assay with HCT-116 colon; more than 100 µM with HCT-15 colon; more than 100 µM in the assay with HL-60(TB) leukemia; 12.4 µM with M14 melanoma. The GI50 was more than 100 µM in the assay on SF-295 CNS, 43 µM in the assay on SK-MEL-28 melanoma and more than 100 µM in the assay on UACC-257 melanoma. In addition, the TGI with A498 renal, in the assay with BT-549 breast, in the assay with HCT-116 colon, with HCT-15 colon, in the assay on HL-60(TB) leukemia and with M14 melanoma was more than 100 µM in each case. For the same compound, the TGI in the assay on SF-295 CNS, in the assay on SK-MEL-28 melanoma and in the assay with UACC-257 melanoma was more than 100 µM each time.
For `Fc1ccc2[nH]cc(Cc3c[nH]c4ccc(F)cc34)c2c1`, the GI50 is 15 µM in the assay on A498 renal; 13.9 µM with BT-549 breast; 17.8 µM in the assay with HCT-116 colon; 17.5 µM with HCT-15 colon; 37.4 µM in the assay on HL-60(TB) leukemia; 20.2 µM in the assay with M14 melanoma. Moreover, the GI50 with SF-295 CNS is 20.6 µM; in the assay with SK-MEL-28 melanoma, 25.3 µM; with UACC-257 melanoma it was 15.7 µM. In addition, the TGI with A498 renal is 31.8 µM; in the assay on BT-549 breast it was 30.3 µM; in the assay with HCT-116 colon, 43.3 µM; in the assay with HCT-15 colon it was 55.6 µM; in the assay on HL-60(TB) leukemia, more than 100 µM; in the assay with M14 melanoma it was 42.9 µM. For the same compound, the TGI stood at 47.9 µM in the assay on SF-295 CNS, 76.7 µM in the assay with SK-MEL-28 melanoma and 30.8 µM in the assay on UACC-257 melanoma.
Turning to `CN(C)CCNC(=O)c1cccn2c(=O)c3cc4ccccc4cc3nc12`, the GI50 is 0.122 µM in the assay on A498 renal; 0.68 µM in the assay with BT-549 breast; 0.2 µM in the assay with HCT-15 colon; 0.36 µM in the assay on HL-60(TB) leukemia; 0.222 µM with M14 melanoma; 0.0679 µM in the assay with SF-295 CNS. The GI50 was 0.424 µM with SK-MEL-28 melanoma, 0.235 µM with SK-OV-3 ovarian and 0.268 µM in the assay with UACC-257 melanoma. Moreover, the TGI in the assay on A498 renal was 0.667 µM; in the assay with BT-549 breast, 2.83 µM; in the assay on HCT-15 colon, more than 100 µM; in the assay on HL-60(TB) leukemia it was 9.73 µM; with M14 melanoma it was 1.21 µM; in the assay with SF-295 CNS, 1.1 µM. Also, the TGI was found to be 2.9 µM with SK-MEL-28 melanoma, 22.8 µM in the assay on SK-OV-3 ovarian and 1.14 µM in the assay with UACC-257 melanoma.
Consider `CN(C)CCCNC(=O)c1cc(NC(=O)CCNS(=O)(=O)c2ccc3c(c2)C(=O)c2ccccc2C3=O)cn1C`, for which the GI50 with A498 renal, with BT-549 breast, with HCT-116 colon, in the assay with M14 melanoma, in the assay on SF-295 CNS and in the assay with SK-OV-3 ovarian was more than 100 µM in each case. Also, the GI50 in the assay on UACC-257 melanoma was 54.4 µM. Besides, the TGI in the assay with A498 renal, with BT-549 breast, in the assay on HCT-116 colon, in the assay on M14 melanoma, in the assay with SF-295 CNS and in the assay with SK-OV-3 ovarian was more than 100 µM throughout. In the assay on UACC-257 melanoma, the TGI is more than 100 µM.
